Results reported in ChEMBL document CHEMBL6182881, “Optimized ebselen derivatives as novel potent Escherichia coli β-glucuronidase covalent allosteric inhibitors” (Eur J Med Chem, 2025).
Activity calls are given as the source filed them. No cut-off for these calls is given here.

How the values were obtained:
[1] = tested on: Escherichia coli; test: Covalent allosteric inhibition of recombinant Escherichia coli beta-glucuronidase using PNPG as substrate at 10 uM incubated for 30 mins by absorbance based microplate reader assay relative to control
[2] = Cytotoxicity against human HCT-116 cells assessed as cell viability at 5 uM incubated for 24 hrs by CCK-8 assay relative to control; assay type: toxicity, cell-based; details: read-out: Activity
[3] = Covalent allosteric inhibition of recombinant Escherichia coli beta-glucuronidase using PNPG as substrate incubated for 30 mins by absorbance based microplate reader assay
[4] = Covalent irreversible binding affinity to recombinant Escherichia coli beta-glucuronidase assessed as inhibition constant incubated for 30 mins
[5] = tested on: Escherichia coli; test: Covalent irreversible binding affinity to recombinant Escherichia coli beta-glucuronidase using PNPG as substrate at 10 times IC50 pre-incubated for 30 mins followed by substrate addition by jump dilution assay
[6] = tested on: Escherichia coli; test: Covalent irreversible binding affinity to recombinant Escherichia coli beta-glucuronidase assessed as kinact/ki ratio incubated for 30 mins
[7] = tested on: Escherichia coli; test: Covalent binding affinity to recombinant Escherichia coli beta-glucuronidase at Cys197 residue by LC-MS/MS analysis
[8] = tested on: Escherichia coli; test: Covalent irreversible binding affinity to recombinant Escherichia coli beta-glucuronidase assessed as inactivation constant incubated for 30 mins
[9] = Binding affinity to Escherichia coli beta-glucuronidase assessed as inhibition constant
[10] = tested on: Escherichia coli; test: Potency index, ratio of IC50 for amoxapine to test compound IC50 for covalent allosteric inhibition of recombinant Escherichia coli beta-glucuronidase using PNPG as substrate incubated for 30 mins by absorbance based microplate reader assay
[11] = tested on: Escherichia coli; test: Covalent binding affinity to recombinant Escherichia coli beta-glucuronidase at Cys28 residue by LC-MS/MS analysis
[12] = Covalent reversible binding affinity to recombinant Escherichia coli beta-glucuronidase assessed as apparent inhibition constant incubated for 30 mins; details: read-out: Ki(app)
[13] = tested on: Escherichia coli; test: Covalent binding affinity to recombinant Escherichia coli beta-glucuronidase at Cys443 residue by LC-MS/MS analysis
[14] = tested on: Escherichia coli; test: Covalent reversible binding affinity to recombinant Escherichia coli beta-glucuronidase using PNPG as substrate at 10 times IC50 pre-incubated for 30 mins followed by substrate addition by jump dilution assay
[15] = Covalent inhibition of Escherichia coli beta-glucurodinase

| SMILES | inhibition [1] [%] | IC50 [3] [nM] | other results |
| --- | --- | --- | --- |
| O=c1c2ccccc2[se]n1-c1ccc(C(F)(F)F)cc1 | < 90 | – | – |
| O=c1c2cc(Br)ccc2[se]n1-c1ccccc1 | < 90 | – | – |
| COC(=O)[C@H](CO)n1[se]c2ccccc2c1=O | 93.8 | 48.2 | viability at 24 h, 5 µM [2]: 86.2% |
| Cc1nnc(-n2[se]c3ccccc3c2=O)s1 | < 90 | – | – |
| CC(=O)OC[C@H]1O[C@@H](n2cnc3c(-n4[se]c5ccccc5c4=O)ncnc32)[C@H](OC(C)=O)[C@@H]1OC(C)=O | 98.8 | 73.4 | Ki [4]: 5.95 µM; Activity [5]: Active; viability at 24 h, 5 µM [2]: 81%; K [6]: 21300 M⁻¹ s⁻¹; Activity [7]: Active; Kinact [8]: 7.6 min⁻¹ |
| O=c1c2ccccc2[se]n1CCO | 96.2 | 18.3 | viability at 24 h, 5 µM [2]: 86.2% |
| Clc1ccc2c(c1)C(N1CCNCC1)=Nc1ccccc1O2 [AMOXAPINE] | 88.9 | 202 | Ki [9]: 180 nM |
| O=c1c2ccccc2[se]n1-c1cccnc1 | > 90 | – | – |
| CC(C)(C)c1nnc(-n2[se]c3ccccc3c2=O)s1 | > 90 | – | – |
| CN1CCC(n2[se]c3ccccc3c2=O)CC1 | 93.9 | 58.5 | – |
| O=c1c2ccccc2[se]n1-c1ccc2[nH]ccc2c1 | > 90 | – | – |
| O=c1c2ccccc2[se]n1CC(F)(F)F | 94.7 | 76.9 | – |
| CN(C)CCn1[se]c2ccccc2c1=O | > 90 | – | – |
| CCn1[se]c2ccccc2c1=O | < 90 | – | – |
| O=c1[nH][se]c2ccc(C(F)(F)F)cc12 | < 90 | – | – |
| O=c1c2ccccc2[se]n1-c1nnc(C2CCCC2)s1 | < 90 | – | – |
| COC(=O)[C@H](CSC)n1[se]c2ccccc2c1=O | > 90 | – | – |
| O=c1c2ccccc2[se]n1-c1ccccn1 | < 90 | – | – |
| CC(C)c1nnc(-n2[se]c3ccccc3c2=O)s1 | < 90 | – | – |
| O=c1c2ccccc2[se]n1-c1ccccc1 | < 90 | – | – |
| COC(=O)[C@H](CC(C)C)NC(=O)Cn1[se]c2ccccc2c1=O | > 90 | – | – |
| COC(=O)[C@H](Cc1c[nH]c2ccccc12)n1[se]c2ccccc2c1=O | > 90 | – | – |
| O=c1c2ccccc2[se]n1C1CCCCC1 | < 90 | – | – |
| O=c1c2ccccc2[se]n1-c1cnc2[nH]ncc2c1 | < 90 | – | – |
| Cc1nnc(-n2[se]c3ccccc3c2=O)o1 | 97.5 | 116 | – |
| O=c1c2ccccc2[se]n1-c1cn[nH]c1 | 98.3 | 12.9 | Ratio IC50 [10]: 15.6; viability at 24 h, 5 µM [2]: 71.5%; Activity [11]: Active; Ki [12]: 23.3 nM; Activity [13]: Active; Activity [7]: Active; Activity [14]: Active |

| SMILES | inhibition [1] [%] | IC50 [3] [nM] | other results |
| --- | --- | --- | --- |
| CCc1nnc(-n2[se]c3ccccc3c2=O)s1 | < 90 | – | – |
| C=CCCn1[se]c2ccccc2c1=O | < 90 | – | – |
| C=CCn1[se]c2ccccc2c1=O | > 90 | – | – |
| Cn1cc(-n2[se]c3ccccc3c2=O)cn1 | 94.8 | 42.1 | – |
| O=c1c2ccccc2[se]n1-c1nncs1 | < 90 | – | – |
| COc1ccc(-n2[se]c3ccccc3c2=O)cc1 | < 90 | – | – |
| O=c1c2ccccc2[se]n1-c1nnc(C(F)(F)F)s1 | 93.7 | 188 | – |
| COC(=O)[C@H](CCCCNC(=O)OC(C)(C)C)n1[se]c2ccccc2c1=O | 94.4 | 66.5 | viability at 24 h, 5 µM [2]: 86.2% |
| O=c1c2ccccc2[se]n1-c1nnc(C2CCC(F)(F)CC2)s1 | < 90 | – | – |
| COC(=O)c1ccc2c(=O)n(-c3cccc4cccnc34)[se]c2c1 | 98.4 | 63.4 | – |
| O=c1c2ccccc2[se]n1-c1ccc(Cl)cc1 | 94.3 | 127 | – |
| O=c1c2ccccc2[se]n1-c1ccc(F)cc1 | > 90 | – | – |
| O=c1[nH][se]c2ccccc12 | 72.1 | – | – |
| O=c1c2ccccc2[se]n1-c1cc(C2CC2)[nH]n1 | < 90 | – | – |
| CNC(=O)c1cc(Oc2ccc(-n3[se]c4ccccc4c3=O)cc2)ccn1 | 96.2 | 446 | viability at 24 h, 5 µM [2]: 86.2% |
| Cc1ccc2c(=O)n(Cc3ccccc3)[se]c2c1 | < 90 | – | – |
| Cc1cc(-n2[se]c3ccccc3c2=O)n[nH]1 | < 90 | – | – |
| O=c1c2ccccc2[se]n1-c1nnc(CC(F)(F)F)s1 | 6.11 | – | – |
| O=c1c2ccccc2[se]n1-c1ncc(C(F)(F)F)cc1Cl | < 90 | – | – |
| O=c1c2ccccc2[se]n1-c1ccc2[nH]ncc2c1 | < 90 | – | – |
| COC(=O)[C@H](Cc1ccc(O)cc1)n1[se]c2ccccc2c1=O | 96.9 | 21.2 | viability at 24 h, 5 µM [2]: 86.2% |
| Oc1ccccc1-c1nc2cc(Cl)cc(Cl)c2[nH]1 | – | – | IC50 [15]: 4.48 µM |
| O=C(O)c1ccc(-n2[se]c3ccccc3c2=O)cc1 | 96.8 | 55.7 | viability at 24 h, 5 µM [2]: 86.2% |
| CCCc1nnc(-n2[se]c3ccccc3c2=O)s1 | < 90 | – | – |
| O=c1c2ccccc2[se]n1-c1nccs1 | < 90 | – | – |
| O=c1c2ccccc2[se]n1C12CC3CC(CC(C3)C1)C2 | < 90 | – | – |
